Assay results as given in patent US5596002A, “Method of treating chloroquine-resistant malaria with aminoquinoline derivatives” (Hoffmann-La Roche Inc., priority 1993, dated 1997).
In brackets after ≈: the same amount, converted by molar mass. Like-named read-outs stand apart in the source and are kept apart here.

How the values were obtained:
[1] = tested on: Plasmodium falciparum, chloroquine-sensitive strain NF54; assay: activity against P. falciparum in vitro, strain NF54; assay type: cell-based; conditions: chloroquine-sensitive strain NF54, 48 h-72 h; for IC50: Plasmodium falciparum, read-out: IC50 (50% growth inhibition)
Protocol: (§1) Test method for the determination of the activity against P. falciparum in vitro
(§2) The preparations of the present invention were tested on intraerythrocytary stages of P. falciparum from asynchronous cultures according to the method of Desjardin et al. (Desjardins, R. E. et al: Quantitative assessment of antimalarial activity in vitro by a semiautomated microdilution technique. Antimicrob. Agents Chemother. 16, 710-718, (1979)).
(§3) The culture medium consisted of RPMI 1640 with the addition of 25 mM HEPES, 25 mM NaHCO3, […] neomycin and 10% human serum (A^+). Human-A^+ erythrocytes were used as the P. falciparum host cells. The parasites were maintained at 37° C. in an atmosphere of 3% O2, 4% CO2, 93% N2 and at 95% relative humidity.
(§4) In order to determine the activity, the preparations were dissolved in DMSO, pre-diluted in the culture medium to a suitable starting concentration and subsequently titrated-out into microtitre plates in the 2nd stage over 6-7 steps. After the addition of the parasite culture (0.7% parasitemia in 2.5% erythrocyte suspension), the test plates were incubated under the conditions given above for 48 h-72 h. The parasite growth in the different preparation concentrations was determined using [G-^3 H]-hypoxanthin incorporation compared to untreated control cultures on the same test plates. The 50% growth inhibition (IC50) was calculated according to logit regression analysis from the resulting dosage-activity curve.
(§5) The preparations were tested on at least one chloroquine-resistant and one chloroquine-sensitive P. falciparum strain. Additional sensitive and resistant strains were also included for further characterization.
(§6) Table 1 below contains the IC50 values measured in vitro for the growth inhibition of chloroquine-sensitive and chloroquine-resistant strains of the human pathogenic Plasmodium falciparum.

[2] = tested on: Plasmodium falciparum, chloroquine-sensitive strain FCH5C2; assay: activity against P. falciparum in vitro, strain FCH5C2; assay type: cell-based; conditions: chloroquine-sensitive strain FCH5C2, 48 h-72 h, read-out: IC50 (50% growth inhibition)
Protocol: as §1, §2, §3, §4, §5, §6

[3] = tested on: Plasmodium falciparum, chloroquine-sensitive strain HB3; assay: activity against P. falciparum in vitro, strain HB3; assay type: cell-based; conditions: chloroquine-sensitive strain HB3, 48 h-72 h, read-out: IC50 (50% growth inhibition)
Protocol: as §1, §2, §3, §4, §5, §6

[4] = tested on: Plasmodium falciparum, chloroquine-sensitive strain RFMEF3; assay: activity against P. falciparum in vitro, strain RFMEF3; assay type: cell-based; conditions: chloroquine-sensitive strain RFMEF3, 48 h-72 h, read-out: IC50 (50% growth inhibition)
Protocol: as §1, §2, §3, §4, §5, §6

[5] = tested on: Plasmodium falciparum, chloroquine-sensitive strain Ro7 3; assay: activity against P. falciparum in vitro, strain Ro7 3; assay type: cell-based; conditions: chloroquine-sensitive strain Ro7 3, 48 h-72 h, read-out: IC50 (50% growth inhibition)
Protocol: as §1, §2, §3, §4, §5, §6

[6] = tested on: Plasmodium falciparum, chloroquine-resistant strain RFCR3; assay: activity against P. falciparum in vitro, strain RFCR3; assay type: cell-based; conditions: chloroquine-resistant strain RFCR3, 48 h-72 h, read-out: IC50 (50% growth inhibition)
Protocol: as §1, §2, §3, §4, §5, §6

[7] = tested on: Plasmodium falciparum, chloroquine-resistant strain ItG2 F6; assay: activity against P. falciparum in vitro, strain ItG2 F6; assay type: cell-based; conditions: chloroquine-resistant strain ItG2 F6, 48 h-72 h, read-out: IC50 (50% growth inhibition)
Protocol: as §1, §2, §3, §4, §5, §6

[8] = tested on: Plasmodium falciparum, chloroquine-resistant strain Indo; assay: activity against P. falciparum in vitro, strain Indo; assay type: cell-based; conditions: chloroquine-resistant strain Indo, 48 h-72 h, read-out: IC50 (50% growth inhibition)
Protocol: as §1, §2, §3, §4, §5, §6

[9] = tested on: Plasmodium falciparum, chloroquine-resistant strain K1; assay: activity against P. falciparum in vitro, strain K1; assay type: cell-based; conditions: chloroquine-resistant strain K1, 48 h-72 h; for IC50: Plasmodium falciparum, read-out: IC50 (50% growth inhibition)
Protocol: as §1, §2, §3, §4, §5, §6

[10] = tested on: Plasmodium falciparum, chloroquine-resistant strain W2; assay: activity against P. falciparum in vitro, strain W2; assay type: cell-based; conditions: chloroquine-resistant strain W2, 48 h-72 h, read-out: IC50 (50% growth inhibition)
Protocol: as §1, §2, §3, §4, §5, §6

[11] = tested on: Plasmodium falciparum, chloroquine-resistant strain 7G8; assay: activity against P. falciparum in vitro, strain 7G8; assay type: cell-based; conditions: chloroquine-resistant strain 7G8, 48 h-72 h, read-out: IC50 (50% growth inhibition)
Protocol: as §1, §2, §3, §4, §5, §6

[12] = tested on: Plasmodium berghei (strain ANKA); assay: activity against Plasmodium berghei in vivo (infected mice); conditions: mice; for ED50: single administration po, dose reducing average erythrocyte infection rate by 50%, read-out: ED50 (po); for inhibition in vivo at 10 mg/kg: 48 hours after treatment (D+3)
Protocol: Test method for the determination of the activity against Plasmodium berghei in vivo
The preparations according to the present invention were tested on mice infected with malaria pathogens (Plasmodium berghei). Male albino mice (IBM:MORO(SPF), FUELLINSDORF) weighing about 25 g were used as the test animals. They were kept in climatized rooms at 21°-22° C. in groups of 5 animals per cage. They received ad libitum a diet feed with a low PABA content ("NAFAG FUTTER" No. 9009 PAB-45, PABA content 45 mg/kg) and drinking water. On the first day of the test (D0) the test animals were infected with Plasmodium berghei (strain ANKA). For this there was used heparinized blood of a donor mouse with about 30% parasitemia, which was diluted with physiological saline such that it contains 10^8 parasitized erythrocytes per ml. 0.2 ml of this suspension was injected intravenously (i.v.) into the mice to be treated and into the control mice. In untreated control animals the parasitemia normally reaches 30-40% on the third day after the infection (D+3) and the test animals die between days +5 and +7.
The substances to be tested were dissolved or suspended in distilled water or in a mixture of 7% Tween 80, 3% alcohol (96%) and water. Usually, 0.25 ml of this solution or suspension was administered once subcutaneously and perorally to groups of 5 test animals. Treatment was effected 24 hours after the infection. 10 control animals were treated in the same manner with solvent or suspension medium per test.
All substances were tested in a first test in a single dosage of 10 mg/kg. Only those substances which in this test (10 mg/kg) had shown a parasitaemia reduction of 90% were used for the titration.
48 hours after the treatment (D+3), blood smears were prepared from all animals using blood from tail veins and were stained with Giemsa. The average erythrocyte infection rate (parasitemia in %) in the control groups as well as in the groups which had been treated with the test compounds was determined by counting under a microscope. The difference in the average values of the infection rates of control group (100%) and treated groups was calculated and expressed as a percentage reduction (GI %). The ED50 or ED90 was determined mathematically by means of the JMP programme (nonlinear fit). The ED50 (ED90) in mg/kg is that dose which after single administration reduces the average erythrocyte infection rate by 50% (90%) in comparison to the control group.
Table 2 below contains data with respect to the activity measured against Plasmodium berghei in mice: GI % is the percentage reduction in the parasitemia after a single dose of 10 mg/kg of the test substance administered perorally (po) or subcutaneously (sc); ED50 and ED90 are the effective doses of the test substance administered perorally or subcutaneously.

[13] = single dose 10 mg/kg po, read-out: GI % at 10 mg/kg (po): percentage reduction in the parasitemia
[14] = single dose 10 mg/kg sc, read-out: GI % at 10 mg/kg (sc): percentage reduction in the parasitemia

| Molecule | IC50 [1] [µg/mL] | IC50 [9] [µg/mL] | ED50 [12] [mg/kg] | inhibition in vivo at 10 mg/kg [12, 13] [%] | inhibition in vivo at 10 mg/kg [12, 14] [%] | further results |
| --- | --- | --- | --- | --- | --- | --- |
| CCN(CC)CCNc1ccnc2cc(C(F)(F)F)ccc12 [Example 21, N1,N1 -Diethyl-N2-(7-trifluoromethyl-quinolin-4-yl)-ethane-1,2-diamine] | 0.021 (≈ 0.0674 µM) | 0.034 (≈ 0.109 µM) | – | – | – | IC50 [2]: 0.035 µg/mL (≈ 0.112 µM); IC50 [3]: 0.033 µg/mL (≈ 0.106 µM); IC50 [4]: 0.035 µg/mL (≈ 0.112 µM); IC50 [5]: 0.028 µg/mL (≈ 0.0899 µM); IC50 [6]: 0.054 µg/mL (≈ 0.173 µM); IC50 [7]: 0.028 µg/mL (≈ 0.0899 µM); IC50 [8]: 0.031 µg/mL (≈ 0.0996 µM); IC50 [10]: 0.057 µg/mL (≈ 0.183 µM); IC50 [11]: 0.049 µg/mL (≈ 0.157 µM) |
| C[C@@H](CN(C)C)Nc1ccnc2cc(Cl)ccc12 [Example 33c, (S)-N2-(7-Chloro-quinolin-4-yl)-N1,N1-dimethyl-propane-1,2-diamine] | 0.008 (≈ 0.0303 µM) | 0.024 (≈ 0.091 µM) | 1.9 | 99.9 | 99.9 | – |
| C[C@H](CN(C)C)Nc1ccnc2cc(Cl)ccc12 [Example 33d, (R)-N2-(7-Chloro-quinolin-4-yl)-N1,N1-dimethyl-propane-1,2-diamine] | 0.008 (≈ 0.0303 µM) | 0.023 (≈ 0.0872 µM) | 2.2 | 99.9 | 99.9 | – |
| CCN(CC)C[C@H](C)Nc1ccnc2cc(Cl)ccc12 [Example 33e, (S)-N2-(7-Chloro-quinolin-4-yl)-N1,N1-diethyl-propane-1,2-diamine] | 0.012 (≈ 0.0411 µM) | 0.053 (≈ 0.182 µM) | 3.1 | 99.8 | 99.9 | – |
| CCN(CC)C[C@@H](C)Nc1ccnc2cc(Cl)ccc12 [Example 33f, (R)-N2 (7-Chloro-quinolin-4-yl)-N1,N1-diethyl-propane-1,2-diamine] | 0.012 (≈ 0.0411 µM) | 0.041 (≈ 0.14 µM) | 2.8 | 99.8 | 99.9 | – |
| C[C@@H](CNc1ccnc2cc(Cl)ccc12)N(C)C [Example 33g, (S)-N1-(7-chloro-quinoline-4-yl)-N2,N2-dimethyl-propane-1,2-diamine] | 0.005 (≈ 0.019 µM) | 0.017 (≈ 0.0644 µM) | – | – | – | – |
| (R)-N1 -(7-Chloro-quinolin-4-yl)-N2,N2 -dimethyl-propane-1,2-diamine [Example 33h] | – | – | – | – | – | IC50 (50% growth inhibition) [1]: 0.007 µg/mL; IC50 (50% growth inhibition) [9]: 0.018 µg/mL |
